The source made the active and inactive calls.
How the values were obtained:
[1] = target: Eukaryotic translation initiation factor 4H (Homo sapiens, UniProt Q15056); test: human eIF4H binding inhibitors, primary screen, translation initiation inhibitor project, biochemical, uHTS, fluorescence polarization (AID 2012)
[2] = target: T1, Polyadenylate-binding protein 1 (Homo sapiens, UniProt P11940); test: PABP poly(A) RNA binding inhibitors, primary screen, biochemical, fluorescence polarization, uHTS (AID 2014)
T1 sequence (P11940 whole entry): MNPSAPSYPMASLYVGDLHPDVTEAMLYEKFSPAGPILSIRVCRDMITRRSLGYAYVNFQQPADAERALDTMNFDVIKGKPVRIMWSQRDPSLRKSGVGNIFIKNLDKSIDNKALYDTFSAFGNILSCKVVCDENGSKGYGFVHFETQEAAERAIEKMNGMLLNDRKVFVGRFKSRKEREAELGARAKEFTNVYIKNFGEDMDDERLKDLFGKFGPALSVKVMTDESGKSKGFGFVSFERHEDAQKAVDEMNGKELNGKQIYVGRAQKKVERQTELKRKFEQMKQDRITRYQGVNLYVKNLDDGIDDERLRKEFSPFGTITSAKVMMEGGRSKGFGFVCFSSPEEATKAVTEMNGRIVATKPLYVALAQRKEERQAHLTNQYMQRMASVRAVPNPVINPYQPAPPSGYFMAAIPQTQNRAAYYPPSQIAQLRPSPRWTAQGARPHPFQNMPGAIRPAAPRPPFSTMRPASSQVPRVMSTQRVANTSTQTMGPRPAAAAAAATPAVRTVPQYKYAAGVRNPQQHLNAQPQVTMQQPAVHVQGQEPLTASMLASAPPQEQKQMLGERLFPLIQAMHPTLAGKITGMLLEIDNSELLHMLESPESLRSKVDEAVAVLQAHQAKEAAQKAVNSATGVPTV

[3] = system: Streptococcus; test: Group A Streptococcus viability loss, dose response, counter-screen for streptokinase expression inhibitor project, luminescence, BacTiterGlo (AID 1915); type: functional, organism-based;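 note: potency for reduction of bacterial viability or growth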
[4] = Luminescence Cell-Based Dose Confirmation HTS to Identify Inhibitors of Polyadenylation.; type: functional
[5] = system: Streptococcus sp. 'group A'; test: growth inhibition of control SK(-) GAS strain, dose response, counter-screen for streptokinase expression inhibitor project, luminescence, kanamycin, BacTiterGlo, confirmation (AID 1900); type: functional, organism-based
[6] = target: T2, Streptokinase A (Streptococcus pyogenes serotype M1, UniProt P10520); test: S. pyogenes streptokinase expression inhibitors, potency, dose response, plasminogen activation absorbance, OD405 (AID 1914); type: functional, Streptococcus pyogenes M1 GAS;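 note: secreted streptokinase activity via plasminogen activation per viability signal from cell pellet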
T2 sequence (P10520 whole entry): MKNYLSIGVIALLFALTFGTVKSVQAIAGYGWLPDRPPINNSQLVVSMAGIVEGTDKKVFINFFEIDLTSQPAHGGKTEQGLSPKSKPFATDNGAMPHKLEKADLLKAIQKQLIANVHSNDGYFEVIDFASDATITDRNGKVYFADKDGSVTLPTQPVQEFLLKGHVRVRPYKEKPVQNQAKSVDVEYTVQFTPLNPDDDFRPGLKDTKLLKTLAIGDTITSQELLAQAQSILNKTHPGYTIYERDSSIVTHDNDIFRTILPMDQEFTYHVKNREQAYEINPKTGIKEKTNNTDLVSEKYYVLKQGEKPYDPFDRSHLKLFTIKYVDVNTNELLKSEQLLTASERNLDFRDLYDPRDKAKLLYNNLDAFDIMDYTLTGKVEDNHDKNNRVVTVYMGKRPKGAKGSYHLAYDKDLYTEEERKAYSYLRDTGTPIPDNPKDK

[7] = target: Multidrug resistance protein CDR1 (Candida albicans, UniProt P43071); test: CaCDR1 efflux pump inhibitors in yeast, dose response, S. cerevisiae AD1-8u, singleplex, Cherry Pick1 hits (AID 588606); type: functional
Sequence of Multidrug resistance protein CDR1 (P43071 whole entry, looked up): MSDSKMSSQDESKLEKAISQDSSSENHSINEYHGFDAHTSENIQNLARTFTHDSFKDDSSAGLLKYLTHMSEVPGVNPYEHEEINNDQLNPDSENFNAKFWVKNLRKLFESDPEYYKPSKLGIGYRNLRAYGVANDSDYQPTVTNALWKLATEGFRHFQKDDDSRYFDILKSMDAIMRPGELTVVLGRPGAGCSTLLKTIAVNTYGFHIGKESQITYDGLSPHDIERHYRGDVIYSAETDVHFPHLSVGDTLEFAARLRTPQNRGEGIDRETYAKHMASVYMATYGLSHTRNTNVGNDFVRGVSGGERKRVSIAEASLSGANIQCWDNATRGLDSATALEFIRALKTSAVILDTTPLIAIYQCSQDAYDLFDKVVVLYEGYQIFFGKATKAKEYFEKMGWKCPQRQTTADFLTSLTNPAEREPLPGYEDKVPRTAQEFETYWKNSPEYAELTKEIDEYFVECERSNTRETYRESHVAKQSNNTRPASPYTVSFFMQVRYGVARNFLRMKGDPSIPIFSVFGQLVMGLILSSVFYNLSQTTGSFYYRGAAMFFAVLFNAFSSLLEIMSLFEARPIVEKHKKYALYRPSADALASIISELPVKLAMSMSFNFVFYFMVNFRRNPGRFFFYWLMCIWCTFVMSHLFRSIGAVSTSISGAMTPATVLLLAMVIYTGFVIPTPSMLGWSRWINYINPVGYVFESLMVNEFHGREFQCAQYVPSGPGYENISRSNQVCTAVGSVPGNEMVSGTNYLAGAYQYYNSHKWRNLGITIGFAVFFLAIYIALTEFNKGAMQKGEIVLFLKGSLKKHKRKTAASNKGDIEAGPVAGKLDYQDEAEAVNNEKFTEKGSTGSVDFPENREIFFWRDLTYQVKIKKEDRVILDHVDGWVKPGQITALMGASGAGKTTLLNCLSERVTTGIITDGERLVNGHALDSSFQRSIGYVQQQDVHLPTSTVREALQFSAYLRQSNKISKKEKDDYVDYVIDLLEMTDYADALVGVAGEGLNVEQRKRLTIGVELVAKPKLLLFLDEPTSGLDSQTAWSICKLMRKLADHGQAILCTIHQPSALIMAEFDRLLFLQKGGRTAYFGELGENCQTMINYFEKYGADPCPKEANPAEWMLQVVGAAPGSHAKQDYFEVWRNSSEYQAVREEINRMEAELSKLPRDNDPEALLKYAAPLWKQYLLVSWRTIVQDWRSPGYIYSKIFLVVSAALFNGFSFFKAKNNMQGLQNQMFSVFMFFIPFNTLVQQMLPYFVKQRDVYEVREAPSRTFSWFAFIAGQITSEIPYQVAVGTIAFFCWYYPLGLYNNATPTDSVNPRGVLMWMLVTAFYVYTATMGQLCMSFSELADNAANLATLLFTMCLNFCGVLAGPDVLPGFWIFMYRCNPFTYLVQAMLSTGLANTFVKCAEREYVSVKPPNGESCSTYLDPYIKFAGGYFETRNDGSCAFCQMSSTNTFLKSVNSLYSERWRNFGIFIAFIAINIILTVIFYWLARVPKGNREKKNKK

[8] = polyadenylation inhibitors in yeast reporter, dose response, luminescence, S. cerevisiae SKY197-pL101 (AID 2525); type: functional, cell-based
[9] = target: Peroxisome proliferator-activated receptor gamma/Nuclear receptor corepressor 2 (Homo sapiens, UniProt P37231+Q9Y618); type: functional
[10] = target: T1, Polyadenylate-binding protein 1; test: PABP1 MLLE–PAM2 interaction inhibitors, dose response, miRNA deadenylation inhibitor project, biochemical, fluorescence polarization, Cy5-PAM2 peptide, secondary (AID 602260); type: functional; conditions: read-out: IC50_Mean
[11] = target: T3, Zinc finger protein mex-5 (Caenorhabditis elegans, UniProt Q9XUB2); test: MEX-5/TCR-2 RNA interaction inhibitors, dose response, biochemical, C. elegans, fluorescence polarization (AID 1960)
T3 sequence (Q9XUB2 whole entry): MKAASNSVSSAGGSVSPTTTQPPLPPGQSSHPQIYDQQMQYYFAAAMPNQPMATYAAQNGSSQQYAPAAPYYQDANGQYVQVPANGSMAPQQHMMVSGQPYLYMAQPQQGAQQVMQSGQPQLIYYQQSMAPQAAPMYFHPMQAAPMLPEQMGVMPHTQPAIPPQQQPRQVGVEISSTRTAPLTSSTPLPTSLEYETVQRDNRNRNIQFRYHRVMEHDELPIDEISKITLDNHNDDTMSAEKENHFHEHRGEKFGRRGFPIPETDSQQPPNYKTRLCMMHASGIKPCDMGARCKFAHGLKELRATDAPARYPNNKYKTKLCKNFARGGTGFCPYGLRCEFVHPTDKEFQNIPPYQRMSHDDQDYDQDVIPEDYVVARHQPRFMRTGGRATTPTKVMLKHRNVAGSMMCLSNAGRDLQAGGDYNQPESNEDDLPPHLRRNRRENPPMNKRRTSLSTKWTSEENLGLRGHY

[12] = target: Photoreceptor-specific nuclear receptor (Homo sapiens, UniProt Q9Y5X4); type: functional;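 note: potency for compounds that break the NR2E3 corepressor complex and count as activators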
Sequence of Photoreceptor-specific nuclear receptor (Q9Y5X4 whole entry): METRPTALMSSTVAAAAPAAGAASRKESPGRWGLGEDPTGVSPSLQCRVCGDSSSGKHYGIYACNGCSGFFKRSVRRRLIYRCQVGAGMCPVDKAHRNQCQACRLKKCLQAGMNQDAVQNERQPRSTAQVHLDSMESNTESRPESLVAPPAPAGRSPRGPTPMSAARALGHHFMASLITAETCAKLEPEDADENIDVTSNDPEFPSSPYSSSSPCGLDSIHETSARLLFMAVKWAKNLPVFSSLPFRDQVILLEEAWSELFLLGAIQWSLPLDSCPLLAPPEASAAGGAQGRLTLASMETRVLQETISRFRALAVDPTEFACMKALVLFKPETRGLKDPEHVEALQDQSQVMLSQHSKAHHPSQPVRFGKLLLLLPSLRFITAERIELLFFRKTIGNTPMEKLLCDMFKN

[13] = target: T1, Polyadenylate-binding protein 1; test: PABP1 MLLE–PAM2 binding inhibitor potency, dose response, biochemical, fluorescence polarization, FITC-PAM2 peptide (AID 602259); type: functional; conditions: read-out: IC50_Mean
[14] = target: T4, RNA-binding protein pos-1 (Caenorhabditis elegans, UniProt G5EF15); test: inhibitors of POS-1/mex-3 RNA binding, dose response, biochemical, fluorescence polarization (AID 1964);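 note: purified POS-1 fused to maltose binding protein made in E. coli; potency of compounds blocking POS-1 binding to fluorescent RNA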
T4 sequence (G5EF15 whole entry): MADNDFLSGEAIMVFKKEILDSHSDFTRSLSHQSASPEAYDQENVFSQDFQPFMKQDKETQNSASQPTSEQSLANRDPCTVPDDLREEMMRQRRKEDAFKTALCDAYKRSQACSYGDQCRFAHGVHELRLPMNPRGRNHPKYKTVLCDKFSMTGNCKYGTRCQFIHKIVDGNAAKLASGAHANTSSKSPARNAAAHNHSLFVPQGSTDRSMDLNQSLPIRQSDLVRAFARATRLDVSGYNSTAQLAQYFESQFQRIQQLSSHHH

[15] = target: T5, Eukaryotic translation initiation factor 2-alpha kinase 3 (Homo sapiens, UniProt Q9NZJ5); test: Counterscreen assay for PERK inhibitors: Dose response cell-based high throughput screening assay to measure inhibition of PERK at 6 hours. [Related pubchem assays: 1522, 1416 ]; type: functional
T5 sequence (Q9NZJ5 whole entry): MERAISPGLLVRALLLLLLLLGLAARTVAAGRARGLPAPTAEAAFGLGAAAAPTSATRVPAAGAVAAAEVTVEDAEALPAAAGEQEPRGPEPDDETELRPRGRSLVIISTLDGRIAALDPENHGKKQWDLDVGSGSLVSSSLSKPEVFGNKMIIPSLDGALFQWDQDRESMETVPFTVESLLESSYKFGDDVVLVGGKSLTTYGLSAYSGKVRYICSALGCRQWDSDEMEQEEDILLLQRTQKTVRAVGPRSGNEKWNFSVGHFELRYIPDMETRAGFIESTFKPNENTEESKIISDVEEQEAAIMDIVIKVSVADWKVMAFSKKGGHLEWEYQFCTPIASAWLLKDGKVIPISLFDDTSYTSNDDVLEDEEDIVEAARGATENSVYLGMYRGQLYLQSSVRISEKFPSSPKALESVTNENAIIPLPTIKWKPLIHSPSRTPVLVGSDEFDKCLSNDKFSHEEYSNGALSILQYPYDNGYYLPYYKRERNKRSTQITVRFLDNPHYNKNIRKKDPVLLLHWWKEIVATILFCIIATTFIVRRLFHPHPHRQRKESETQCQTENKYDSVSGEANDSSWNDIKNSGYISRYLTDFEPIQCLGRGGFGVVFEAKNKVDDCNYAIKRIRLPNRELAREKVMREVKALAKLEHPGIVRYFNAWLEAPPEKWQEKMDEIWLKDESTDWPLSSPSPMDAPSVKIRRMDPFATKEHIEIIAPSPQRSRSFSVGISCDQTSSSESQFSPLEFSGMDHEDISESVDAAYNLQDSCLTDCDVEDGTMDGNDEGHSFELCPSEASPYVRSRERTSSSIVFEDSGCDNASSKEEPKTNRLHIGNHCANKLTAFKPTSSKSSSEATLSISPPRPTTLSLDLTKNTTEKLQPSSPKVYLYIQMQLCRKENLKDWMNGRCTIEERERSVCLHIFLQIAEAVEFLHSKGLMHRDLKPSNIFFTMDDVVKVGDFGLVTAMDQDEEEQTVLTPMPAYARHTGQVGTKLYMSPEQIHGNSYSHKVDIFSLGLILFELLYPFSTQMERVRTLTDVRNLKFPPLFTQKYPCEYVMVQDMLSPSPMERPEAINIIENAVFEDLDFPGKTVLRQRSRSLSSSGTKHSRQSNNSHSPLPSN

[16] = target: T5, Eukaryotic translation initiation factor 2-alpha kinase 3; test: Dose response cell-based high-throughput screening assay to measure PERK inhibition. [Related pubchem assays: 1416 ]; type: functional
[17] = target: T6, Caspase-6 (Homo sapiens, UniProt P55212); test: human caspase-6 inhibitors, dose response, biochemical, VEID-R110 fluorescence, cherry-pick (AID 720632)
T6 sequence (P55212 whole entry): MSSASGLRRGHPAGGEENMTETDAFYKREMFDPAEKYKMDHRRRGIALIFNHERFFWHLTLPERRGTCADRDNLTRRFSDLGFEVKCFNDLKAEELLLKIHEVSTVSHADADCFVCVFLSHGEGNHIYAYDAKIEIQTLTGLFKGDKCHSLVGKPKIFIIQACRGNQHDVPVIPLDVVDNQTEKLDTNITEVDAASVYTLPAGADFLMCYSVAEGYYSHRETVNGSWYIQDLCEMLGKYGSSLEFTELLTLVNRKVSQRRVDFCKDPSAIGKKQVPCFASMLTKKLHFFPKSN

[18] = target: Cytochrome P450 2D6 (Homo sapiens, UniProt P10635); test: qHTS Assay for Inhibitors and Substrates of Cytochrome P450 2D6. [Related pubchem assays: 410 ]; type: ADME; conditions: read-out: Potency
[19] = THP-1 cell cytotoxicity, dose response, cytotoxicity control for Vif-APOBEC3G degradation inhibitor project, THP-1 cells (AID 1117359); type: functional; conditions: Human immunodeficiency virus 1, THP-1
[20] = target: Guanyl-specific ribonuclease T1 (Aspergillus oryzae (strain ATCC 42149 / RIB 40), UniProt P00651); test: RNase T1 inhibitors, dose response, counter-screen for TPT1 inhibitor project, biochemical, fluorescence polarization, 1536-well (AID 2167)
Sequence of Guanyl-specific ribonuclease T1 (P00651 whole entry): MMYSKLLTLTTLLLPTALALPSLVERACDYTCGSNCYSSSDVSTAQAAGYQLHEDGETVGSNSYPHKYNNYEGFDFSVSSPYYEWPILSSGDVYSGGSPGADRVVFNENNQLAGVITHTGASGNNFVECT

[21] = target: Likely tRNA 2'-phosphotransferase (Candida albicans (strain SC5314 / ATCC MYA-2876) (Yeast), UniProt Q5A7N4); test: TPT1 tRNA phosphotransferase inhibitors, dose response, biochemical, fluorescence polarization (AID 2160)
Sequence of Likely tRNA 2'-phosphotransferase (Q5A7N4 whole entry): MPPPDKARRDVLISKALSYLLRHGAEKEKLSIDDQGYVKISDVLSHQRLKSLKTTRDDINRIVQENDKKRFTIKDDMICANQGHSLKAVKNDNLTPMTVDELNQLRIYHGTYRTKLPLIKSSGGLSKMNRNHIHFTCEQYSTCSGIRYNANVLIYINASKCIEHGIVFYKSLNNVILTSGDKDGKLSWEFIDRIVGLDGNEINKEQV

[22] = target: Glutathione-S-transferase (Schistosoma japonicum, UniProt Q26513); test: biotin-GST/anti-GST TR-FRET signal inhibitors, dose response, artefact control for Vif-APOBEC3G degradation inhibitor project, biochemical (AID 1117362); type: functional
Sequence of Glutathione-S-transferase (Q26513 whole entry): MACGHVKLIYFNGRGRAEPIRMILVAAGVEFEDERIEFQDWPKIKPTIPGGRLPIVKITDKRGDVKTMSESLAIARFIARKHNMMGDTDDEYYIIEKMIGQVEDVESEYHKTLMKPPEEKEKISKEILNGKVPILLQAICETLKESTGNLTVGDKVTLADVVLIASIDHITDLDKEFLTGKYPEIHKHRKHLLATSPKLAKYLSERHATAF

[23] = target: Lysosomal acid glucosylceramidase (Homo sapiens, UniProt P04062); test: Dose response cell-based high throughput screening assay to identify enhancers of beta-glucosidase activity. [Related pubchem assays: 784 ]; type: functional
Sequence of Lysosomal acid glucosylceramidase (P04062 whole entry): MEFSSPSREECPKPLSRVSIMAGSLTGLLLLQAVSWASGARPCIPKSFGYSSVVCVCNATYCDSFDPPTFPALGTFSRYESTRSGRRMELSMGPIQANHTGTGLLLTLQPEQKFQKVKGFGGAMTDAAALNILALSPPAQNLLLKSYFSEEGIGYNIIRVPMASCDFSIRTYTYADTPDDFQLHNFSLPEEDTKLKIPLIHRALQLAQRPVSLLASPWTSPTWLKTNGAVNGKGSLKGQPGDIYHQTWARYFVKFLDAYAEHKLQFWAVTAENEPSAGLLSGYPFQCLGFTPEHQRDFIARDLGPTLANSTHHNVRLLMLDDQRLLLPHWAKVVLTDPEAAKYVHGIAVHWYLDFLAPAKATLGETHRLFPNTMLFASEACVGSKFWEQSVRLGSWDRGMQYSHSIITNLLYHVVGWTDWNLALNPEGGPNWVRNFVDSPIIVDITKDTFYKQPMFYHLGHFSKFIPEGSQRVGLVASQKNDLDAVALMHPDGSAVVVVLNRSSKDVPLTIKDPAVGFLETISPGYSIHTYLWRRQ

[24] = target: Transitional endoplasmic reticulum ATPase (Homo sapiens, UniProt P55072, C522A); test: C522A mutant p97 ATPase inhibitors, dose response, counter-screen for p97 inhibitor project, biochemical, luminescence (AID 1544)
[25] = growth suppression of beta-catenin-knockout colon cells, dose response, cell-based, HCT116, human colon tumor (AID 1045); type: functional;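 note: HCT116 colon tumor cells with beta catenin knocked out; cells exposed to compound for 60 hours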
[26] = inhibitors of firefly luciferase expression or activity, dose response, H4 neuroglioma cells, luminescence (AID 1990); type: functional, cell-based
[27] = growth suppression of PTEN-null colon cells, dose response, cell-based, HCT116 PTEN knockout (AID 1047); type: functional;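 note: HCT116 colon tumor cells with PTEN knocked out; cells exposed to compound for 60 hours before readout; potency for loss of cell viability measured by luminescence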
[28] = target: Transitional endoplasmic reticulum ATPase (Homo sapiens, UniProt P55072); test: p97 ATPase inhibitors, dose response, biochemical (AID 1534)
[29] = inhibitors of SNCA 5'UTR-driven reporter translation, confirmation, H4 neuroglioma cells, luminescence (AID 1988); type: functional, cell-based
[30] = Luminescence Cell-Based Dose Response HTS to Identify Inhibitors of 5'UTR Stem-Loop Driven Prion Protein mRNA Translation in H4 Neuroglioblastoma Cells. [Related pubchem assays: 1827 (Project Summary), 1813 (Primary HTS)]; type: functional
[31] = target: T7, Ubiquitin-conjugating enzyme E2 N (Homo sapiens, UniProt P61088); type: functional
T7 sequence (P61088 whole entry): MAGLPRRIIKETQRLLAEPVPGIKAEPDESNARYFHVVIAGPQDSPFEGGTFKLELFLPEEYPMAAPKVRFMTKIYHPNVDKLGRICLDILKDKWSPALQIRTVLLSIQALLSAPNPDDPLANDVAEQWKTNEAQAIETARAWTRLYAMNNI

[32] = target: T8, Calpain-2 catalytic subunit (Sus scrofa, UniProt P43367); test: pig calpain II inhibitor potency, dose response, biochemical, fluorogenic peptide substrate (AID 1420); type: functional
T8 sequence (P43367 whole entry): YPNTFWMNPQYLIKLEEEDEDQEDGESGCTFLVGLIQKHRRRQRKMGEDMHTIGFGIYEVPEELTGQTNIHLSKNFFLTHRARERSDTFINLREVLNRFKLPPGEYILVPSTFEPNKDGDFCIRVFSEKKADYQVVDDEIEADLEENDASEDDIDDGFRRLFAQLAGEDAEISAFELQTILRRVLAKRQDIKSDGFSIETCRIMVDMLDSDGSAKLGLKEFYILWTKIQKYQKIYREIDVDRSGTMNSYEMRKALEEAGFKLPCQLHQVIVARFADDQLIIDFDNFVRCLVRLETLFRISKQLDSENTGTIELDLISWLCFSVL

[33] = NIH-3T3 fibroblast cytotoxicity, dose response, cytotoxicity control, cell-based, fluorescence, Alamar Blue, secondary assay (AID 2327); type: functional;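 note: NIH-3T3 mouse fibroblasts cultured with fluconazole at 8 µg/mL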
[34] = target: T9, Bcl-2-related protein A1 (Mus musculus, UniProt Q07440); type: functional;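 note: confirmatory dose–response counterscreen on Bfl-1, used to check hits from a UBC13 polyubiquitin inhibitor campaign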
T9 sequence (Q07440 whole entry): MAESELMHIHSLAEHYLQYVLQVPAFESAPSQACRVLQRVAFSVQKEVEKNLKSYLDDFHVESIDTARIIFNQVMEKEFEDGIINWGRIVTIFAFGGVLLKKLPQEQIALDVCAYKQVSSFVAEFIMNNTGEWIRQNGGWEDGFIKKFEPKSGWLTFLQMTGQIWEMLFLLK

[35] = target: T7, Ubiquitin-conjugating enzyme E2 N; type: functional; remark: listed apart in the source

Structure (SMILES): COc1cc(C)cc(C(=O)O)c1C1=C(O)C(=O)c2c(O)cccc2C1=O
- IC50 [1]: 5.43 µM (active)
- IC50 [2]: 5.41 µM (active)

Structure (SMILES): COc1cc(/C=C2/CC/C(=C/c3ccc(O)c(OC)c3)C2=O)ccc1O
- EC50 [3]: 76.7 µM (active)
- EC50 [4]: 6.57 µM (active)
- EC50 [5]: 15.8 µM (active)
- EC50 [6]: > 150 µM (not active)
- EC50 [7]: 27.1 µM (active)
- EC50 [8]: 173 µM (active)

Structure (SMILES): COC(=O)c1cc2n3ccccc3c(C)c(-c3ccccc3)c-2c1C(=O)OC
- IC50 [9]: 0.196 µM (active)
- IC50 [10]: > 66 µM (inactive)
- EC50 [11]: 16.6 µM (active)
- IC50 [12]: 0.186 µM (active)
- IC50 [13]: 54.7 µM (inactive)
- EC50 [14]: 23.6 µM (active)

Structure (SMILES): CCOC(=O)c1sc(NC(=O)C2C3C=CC(C3)C2C(=O)O)nc1C (stereo not given)
- EC50 [15]: > 55.7 µM (not active)
- EC50 [16]: > 55.7 µM (not active)
- AC50 [17]: 11.1 µM (active)

Structure (SMILES): COc1ccccc1CNc1cc(-c2ccccc2C(F)(F)F)ncn1
- AC50 [18]: 39.8 µM (inconclusive)

Structure (SMILES): CCN1CCN(c2cc(N3CCN(C(=O)c4ccco4)CC3)c3c4c(onc24)-c2ccccc2C3=O)CC1
- CC50 [19]: > 40 µM (active)
- IC50 [20]: 7.8 µM (active)
- IC50 [21]: 10.7 µM (not active)
- IC50 [22]: > 100 µM (active)

Structure (SMILES): CC(=O)N1CCc2cc(Br)cc(S(=O)(=O)NCCN3CCCCC3C)c21 (stereo not given)
- EC50 [23]: > 50 µM (not active)

Structure (SMILES): N=C(N)N/N=C/c1ccc(OCc2ccc(Cl)cc2Cl)cc1
- IC50 [24]: > 50 µM (not active)
- EC50 [25]: 4.16 µM (active)
- EC50 [26]: > 120 µM (not active)
- EC50 [27]: 4.19 µM (active)
- IC50 [28]: > 50 µM (not active)
- EC50 [29]: > 120 µM (not active)
- EC50 [30]: > 120 µM (not active)
- IC50 [31]: 7.26 µM (active)
- IC50 [32]: 7.31 µM (not active)
- EC50 [33]: 21 µM (inconclusive)
- IC50 [34]: 13 µM (active)
- IC50 [35]: 5.97 µM (active)
